Measurements taken from PMC6591251, “Discovery of potent necroptosis inhibitors targeting RIPK1 kinase activity for the treatment of inflammatory disorder and cancer metastasis” (Cell Death & Disease, 2019).

Key:
Experiment in all cases: RBC kinase panel
Assay type in all cases: biochemical
Conditions in all cases: ATP 10 μM, Data1, Data2
ALK1/ACVRL1 = molecular target: T1, ALK1/ACVRL1 (Homo sapiens, UniProt P37023)
T1 construct: purchased Reaction Biology Corporation
Procedure: (§1) PK68 was tested at 1 μM in duplicate against a panel of 369 human kinases at Reaction Biology Corporation. Results are viewed in the human kinome phylogenetic tree.
(§2) ^a Compound PK68 was tested at 1 μM in duplicate against 369 kinases using the RBC kinase panel service of Reaction Biology Corporation. All the ATP concentrations used were 10 μM. […] Full protocol details are available at http://www.reactionbiology.com.

AXL = molecular target: T2, AXL (Homo sapiens, UniProt P30530)
T2 construct: purchased Reaction Biology Corporation
Procedure: as §1, §2

Aurora B = molecular target: T3, Aurora B (Homo sapiens, UniProt Q96GD4)
T3 construct: purchased Reaction Biology Corporation
Procedure: as §1, §2

BRK = molecular target: T4, BRK (Homo sapiens, UniProt Q13882)
T4 construct: purchased Reaction Biology Corporation
Procedure: as §1, §2

CAMK1a = molecular target: T5, CAMK1a (Homo sapiens, UniProt Q14012)
T5 construct: purchased Reaction Biology Corporation
Procedure: as §1, §2

CDC7/DBF4 = molecular target: T6, CDC7/DBF4 (Homo sapiens, UniProt O00311)
T6 construct: purchased Reaction Biology Corporation
Procedure: as §1, §2

CDK2/cyclin A = molecular target: T7, CDK2/cyclin A (Homo sapiens, UniProt P24941)
T7 construct: purchased Reaction Biology Corporation
Procedure: as §1, §2

CK1g2 = molecular target: T8, CK1g2 (Homo sapiens, UniProt P78368)
T8 construct: purchased Reaction Biology Corporation
Procedure: as §1, §2

CLK1 = molecular target: T9, CLK1 (Homo sapiens, UniProt P49759)
T9 construct: purchased Reaction Biology Corporation
Procedure: as §1, §2

CLK4 = molecular target: T10, CLK4 (Homo sapiens, UniProt Q9HAZ1)
T10 construct: purchased Reaction Biology Corporation
Procedure: as §1, §2

DYRK1B = molecular target: T11, DYRK1B (Homo sapiens, UniProt Q9Y463)
T11 construct: purchased Reaction Biology Corporation
Procedure: as §1, §2

EPHA4 = molecular target: T12, EPHA4 (Homo sapiens, UniProt P54764)
T12 construct: purchased Reaction Biology Corporation
Procedure: as §1, §2

ERK2/MAPK1 = molecular target: T13, ERK2/MAPK1 (Homo sapiens, UniProt P28482)
T13 construct: purchased Reaction Biology Corporation
Procedure: as §1, §2

ERN2/IRE2 = molecular target: T14, ERN2/IRE2 (Homo sapiens, UniProt Q76MJ5)
T14 construct: purchased Reaction Biology Corporation
Procedure: as §1, §2

FGFR4 = molecular target: T15, FGFR4 (Homo sapiens, UniProt P22455)
T15 construct: purchased Reaction Biology Corporation
Procedure: as §1, §2

GLK/MAP4K3 = molecular target: T16, GLK/MAP4K3 (Homo sapiens, UniProt Q8IVH8)
T16 construct: purchased Reaction Biology Corporation
T16 sequence (Q8IVH8 whole entry): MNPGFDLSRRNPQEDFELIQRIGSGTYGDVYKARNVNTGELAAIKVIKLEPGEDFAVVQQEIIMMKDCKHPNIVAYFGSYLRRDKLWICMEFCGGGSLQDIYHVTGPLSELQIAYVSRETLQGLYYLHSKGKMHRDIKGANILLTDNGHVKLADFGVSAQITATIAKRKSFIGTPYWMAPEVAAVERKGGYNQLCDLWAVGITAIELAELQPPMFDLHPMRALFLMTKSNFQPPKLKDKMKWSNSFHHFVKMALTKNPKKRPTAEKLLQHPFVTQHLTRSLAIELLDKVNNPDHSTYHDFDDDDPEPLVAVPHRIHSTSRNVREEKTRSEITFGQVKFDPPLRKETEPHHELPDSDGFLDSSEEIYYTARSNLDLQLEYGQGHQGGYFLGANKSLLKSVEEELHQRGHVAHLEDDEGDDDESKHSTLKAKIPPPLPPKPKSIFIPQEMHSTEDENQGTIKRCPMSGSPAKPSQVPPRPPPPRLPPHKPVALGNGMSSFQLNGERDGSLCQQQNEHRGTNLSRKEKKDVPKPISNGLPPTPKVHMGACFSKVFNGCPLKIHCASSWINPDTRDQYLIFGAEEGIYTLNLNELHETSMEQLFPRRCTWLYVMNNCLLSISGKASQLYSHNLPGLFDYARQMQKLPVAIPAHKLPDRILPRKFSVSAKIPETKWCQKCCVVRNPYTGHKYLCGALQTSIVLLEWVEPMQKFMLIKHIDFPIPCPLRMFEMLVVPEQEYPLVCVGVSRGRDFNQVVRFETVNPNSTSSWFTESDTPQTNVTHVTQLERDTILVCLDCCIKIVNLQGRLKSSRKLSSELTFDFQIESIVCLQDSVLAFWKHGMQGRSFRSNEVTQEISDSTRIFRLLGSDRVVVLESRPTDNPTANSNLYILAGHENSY
Procedure: as §1, §2

ITK = molecular target: T17, ITK (Homo sapiens, UniProt Q08881)
T17 construct: purchased Reaction Biology Corporation
Procedure: as §1, §2

MARK4 = molecular target: T18, MARK4 (Homo sapiens, UniProt Q96L34)
T18 construct: purchased Reaction Biology Corporation
Procedure: as §1, §2

MEK1 = molecular target: T19, MEK1 (Homo sapiens, UniProt Q02750)
T19 construct: purchased Reaction Biology Corporation
Procedure: as §1, §2

MEKK3 = molecular target: T20, MEKK3 (Homo sapiens, UniProt Q99759)
T20 construct: purchased Reaction Biology Corporation
Procedure: as §1, §2

MLK2/MAP3K10 = molecular target: T21, MLK2/MAP3K10 (Homo sapiens, UniProt Q02779)
T21 construct: purchased Reaction Biology Corporation
Procedure: as §1, §2

MST3/STK24 = molecular target: T22, MST3/STK24 (Homo sapiens, UniProt Q9Y6E0)
T22 construct: purchased Reaction Biology Corporation
Procedure: as §1, §2

MYO3A = molecular target: T23, MYO3A (Homo sapiens, UniProt Q8NEV4)
T23 construct: purchased Reaction Biology Corporation
T23 sequence (Q8NEV4 whole entry): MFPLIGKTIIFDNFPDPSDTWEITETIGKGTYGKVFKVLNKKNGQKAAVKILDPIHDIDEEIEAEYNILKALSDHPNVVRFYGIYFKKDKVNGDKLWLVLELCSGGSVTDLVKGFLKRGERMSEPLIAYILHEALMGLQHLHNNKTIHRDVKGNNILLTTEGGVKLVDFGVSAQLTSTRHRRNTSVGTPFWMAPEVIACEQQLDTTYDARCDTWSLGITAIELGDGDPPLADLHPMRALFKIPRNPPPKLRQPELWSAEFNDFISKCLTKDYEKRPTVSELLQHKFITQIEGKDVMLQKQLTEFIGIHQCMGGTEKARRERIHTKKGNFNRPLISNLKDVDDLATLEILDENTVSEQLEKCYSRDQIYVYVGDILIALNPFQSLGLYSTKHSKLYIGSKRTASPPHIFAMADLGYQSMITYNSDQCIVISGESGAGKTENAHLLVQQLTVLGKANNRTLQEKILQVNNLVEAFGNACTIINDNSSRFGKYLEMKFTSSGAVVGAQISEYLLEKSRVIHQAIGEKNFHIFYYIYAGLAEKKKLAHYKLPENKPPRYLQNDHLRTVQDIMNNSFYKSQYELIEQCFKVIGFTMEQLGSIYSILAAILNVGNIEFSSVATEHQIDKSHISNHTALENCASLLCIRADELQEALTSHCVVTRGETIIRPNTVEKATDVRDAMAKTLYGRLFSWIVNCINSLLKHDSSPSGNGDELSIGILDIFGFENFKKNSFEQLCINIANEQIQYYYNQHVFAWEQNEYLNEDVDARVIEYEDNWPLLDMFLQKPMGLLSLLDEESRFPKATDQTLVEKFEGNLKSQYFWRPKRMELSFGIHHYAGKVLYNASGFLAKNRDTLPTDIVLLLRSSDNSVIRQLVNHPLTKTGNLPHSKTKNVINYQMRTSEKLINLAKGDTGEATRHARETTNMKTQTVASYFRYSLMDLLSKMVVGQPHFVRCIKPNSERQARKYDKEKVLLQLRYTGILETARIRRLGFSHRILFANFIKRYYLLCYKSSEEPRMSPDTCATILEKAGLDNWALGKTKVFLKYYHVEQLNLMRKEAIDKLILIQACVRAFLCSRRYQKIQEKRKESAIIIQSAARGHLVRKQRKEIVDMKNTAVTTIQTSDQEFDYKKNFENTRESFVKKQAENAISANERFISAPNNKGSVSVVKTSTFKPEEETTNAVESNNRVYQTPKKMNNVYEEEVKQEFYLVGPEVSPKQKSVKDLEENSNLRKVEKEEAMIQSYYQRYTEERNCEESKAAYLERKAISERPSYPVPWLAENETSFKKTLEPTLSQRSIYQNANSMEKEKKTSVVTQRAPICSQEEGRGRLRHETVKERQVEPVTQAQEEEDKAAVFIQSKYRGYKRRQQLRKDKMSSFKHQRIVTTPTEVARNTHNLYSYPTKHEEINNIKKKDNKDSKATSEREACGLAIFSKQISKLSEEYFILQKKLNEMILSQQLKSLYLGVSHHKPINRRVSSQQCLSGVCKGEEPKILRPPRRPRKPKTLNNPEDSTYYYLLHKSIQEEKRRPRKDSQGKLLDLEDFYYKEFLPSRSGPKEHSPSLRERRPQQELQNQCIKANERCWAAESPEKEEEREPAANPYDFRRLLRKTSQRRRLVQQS
Procedure: as §1, §2

PAK3 = molecular target: T24, PAK3 (Homo sapiens, UniProt O75914)
T24 construct: purchased Reaction Biology Corporation
Procedure: as §1, §2

PASK = molecular target: T25, PASK (Homo sapiens, UniProt Q96RG2)
T25 construct: purchased Reaction Biology Corporation
T25 sequence (Q96RG2 whole entry): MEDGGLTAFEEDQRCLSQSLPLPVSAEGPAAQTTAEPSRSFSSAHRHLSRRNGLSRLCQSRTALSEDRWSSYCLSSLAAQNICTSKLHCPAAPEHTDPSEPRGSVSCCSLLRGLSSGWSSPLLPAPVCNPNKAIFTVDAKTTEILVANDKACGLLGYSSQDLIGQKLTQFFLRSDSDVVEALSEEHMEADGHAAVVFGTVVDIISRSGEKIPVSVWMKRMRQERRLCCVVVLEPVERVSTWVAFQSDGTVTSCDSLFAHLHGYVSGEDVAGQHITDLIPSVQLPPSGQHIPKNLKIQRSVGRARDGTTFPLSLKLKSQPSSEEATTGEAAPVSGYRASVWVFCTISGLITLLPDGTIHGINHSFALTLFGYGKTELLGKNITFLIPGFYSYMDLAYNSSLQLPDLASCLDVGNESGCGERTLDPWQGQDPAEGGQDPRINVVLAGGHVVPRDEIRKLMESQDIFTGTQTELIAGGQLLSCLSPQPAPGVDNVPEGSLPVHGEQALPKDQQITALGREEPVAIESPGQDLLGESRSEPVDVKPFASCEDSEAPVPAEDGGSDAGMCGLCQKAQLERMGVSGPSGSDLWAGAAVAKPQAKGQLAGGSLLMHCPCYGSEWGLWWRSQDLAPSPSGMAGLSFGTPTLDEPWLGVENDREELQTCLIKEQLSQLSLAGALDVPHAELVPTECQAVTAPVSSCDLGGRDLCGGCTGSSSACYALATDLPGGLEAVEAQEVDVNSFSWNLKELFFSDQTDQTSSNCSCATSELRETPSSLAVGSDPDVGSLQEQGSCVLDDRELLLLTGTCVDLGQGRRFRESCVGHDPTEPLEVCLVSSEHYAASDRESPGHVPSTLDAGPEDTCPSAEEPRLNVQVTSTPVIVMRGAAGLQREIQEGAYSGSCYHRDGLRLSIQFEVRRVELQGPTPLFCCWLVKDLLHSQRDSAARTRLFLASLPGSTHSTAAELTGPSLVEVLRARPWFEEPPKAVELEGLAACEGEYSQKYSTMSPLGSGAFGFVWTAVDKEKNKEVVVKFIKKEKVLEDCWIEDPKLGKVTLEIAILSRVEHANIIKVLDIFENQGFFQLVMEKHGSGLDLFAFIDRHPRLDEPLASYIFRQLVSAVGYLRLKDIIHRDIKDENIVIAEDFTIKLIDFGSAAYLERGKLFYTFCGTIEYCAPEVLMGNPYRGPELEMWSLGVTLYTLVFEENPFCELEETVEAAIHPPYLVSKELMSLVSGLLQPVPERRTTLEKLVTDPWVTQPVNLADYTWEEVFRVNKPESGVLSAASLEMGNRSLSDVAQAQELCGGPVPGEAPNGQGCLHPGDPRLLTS
Procedure: as §1, §2

PBK/TOPK = molecular target: T26, PBK/TOPK (Homo sapiens, UniProt Q96KB5)
T26 construct: purchased Reaction Biology Corporation
T26 sequence (Q96KB5 whole entry): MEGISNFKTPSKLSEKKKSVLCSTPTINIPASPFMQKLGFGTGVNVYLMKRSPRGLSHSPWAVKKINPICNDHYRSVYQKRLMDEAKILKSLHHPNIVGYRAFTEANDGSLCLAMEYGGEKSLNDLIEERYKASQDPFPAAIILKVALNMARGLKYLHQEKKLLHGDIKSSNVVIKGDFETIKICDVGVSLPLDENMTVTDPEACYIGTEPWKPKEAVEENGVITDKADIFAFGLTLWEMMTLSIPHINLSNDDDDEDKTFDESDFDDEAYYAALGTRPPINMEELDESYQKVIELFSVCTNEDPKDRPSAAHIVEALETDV
Procedure: as §1, §2

PRKX = molecular target: T27, PRKX (Homo sapiens, UniProt P51817)
T27 construct: purchased Reaction Biology Corporation
T27 sequence (P51817 whole entry): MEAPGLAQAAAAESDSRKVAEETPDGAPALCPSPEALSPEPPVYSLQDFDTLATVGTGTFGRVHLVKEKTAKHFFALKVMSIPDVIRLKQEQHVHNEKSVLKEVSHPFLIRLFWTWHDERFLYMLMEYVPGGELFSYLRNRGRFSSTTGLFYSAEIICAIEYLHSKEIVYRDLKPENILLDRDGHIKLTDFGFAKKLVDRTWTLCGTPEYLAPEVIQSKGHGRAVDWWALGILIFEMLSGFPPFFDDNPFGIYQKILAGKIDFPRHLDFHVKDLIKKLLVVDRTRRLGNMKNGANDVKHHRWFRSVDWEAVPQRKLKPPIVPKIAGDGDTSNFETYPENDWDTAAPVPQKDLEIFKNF
Procedure: as §1, §2

ROCK1 = molecular target: T28, ROCK1 (Homo sapiens, UniProt Q13464)
T28 construct: purchased Reaction Biology Corporation
Procedure: as §1, §2

SBK1 = molecular target: T29, SBK1 (Homo sapiens, UniProt Q52WX2)
T29 construct: purchased Reaction Biology Corporation
Procedure: as §1, §2

TAK1 = molecular target: T30, TAK1 (Homo sapiens, UniProt O43318)
T30 construct: purchased Reaction Biology Corporation
Procedure: as §1, §2

TGFBR2 = molecular target: T31, TGFBR2 (Homo sapiens, UniProt P37173)
T31 construct: purchased Reaction Biology Corporation
Procedure: as §1, §2

TTBK2 = molecular target: T32, TTBK2 (Homo sapiens, UniProt Q6IQ55)
T32 construct: purchased Reaction Biology Corporation
Procedure: as §1, §2

ULK3 = molecular target: T33, ULK3 (Homo sapiens, UniProt Q6PHR2)
T33 construct: purchased Reaction Biology Corporation
T33 sequence (Q6PHR2 whole entry): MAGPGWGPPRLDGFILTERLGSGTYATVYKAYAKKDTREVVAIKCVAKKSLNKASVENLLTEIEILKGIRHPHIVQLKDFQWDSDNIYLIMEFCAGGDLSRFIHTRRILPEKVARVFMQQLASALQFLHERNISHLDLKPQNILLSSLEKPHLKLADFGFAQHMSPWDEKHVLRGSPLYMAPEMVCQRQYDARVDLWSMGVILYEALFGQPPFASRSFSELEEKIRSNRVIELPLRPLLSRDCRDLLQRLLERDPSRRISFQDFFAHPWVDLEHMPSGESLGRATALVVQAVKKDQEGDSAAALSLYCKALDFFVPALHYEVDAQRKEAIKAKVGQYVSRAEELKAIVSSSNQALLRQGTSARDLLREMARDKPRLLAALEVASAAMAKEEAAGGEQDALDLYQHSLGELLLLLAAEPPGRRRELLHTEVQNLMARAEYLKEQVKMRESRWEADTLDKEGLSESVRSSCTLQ
Procedure: as §1, §2

SMILES: CC(=O)Nc1nc2ccc(-c3cnc(C)c(NC(=O)OC4CCCCC4)c3)cc2s1 [PK68, cyclohexyl (5-(2-acetamidobenzo[d]thiazol-6-yl)-2-methylpyridin-3-yl)carbamate]
- Activity% (ALK1/ACVRL1; 1 μM): 91.76%
- activity at 1 µM (ALK1/ACVRL1): 95.2%
- Activity% (AXL; 1 μM): 98.35%
- activity at 1 µM (AXL): 98.8%
- Activity% (Aurora B; 1 μM): 83.50%
- activity at 1 µM (Aurora B): 83.7%
- Activity% (BRK; 1 μM): 96.14%
- activity at 1 µM (BRK): 97.5%
- Activity% (CAMK1a; 1 μM): 98.23%
- activity at 1 µM (CAMK1a): 98.6%
- Activity% (CDC7/DBF4; 1 μM): 104.41%
- activity at 1 µM (CDC7/DBF4): 110%
- Activity% (CDK2/cyclin A; 1 μM): 97.94%
- activity at 1 µM (CDK2/cyclin A): 98.5%
- Activity% (CK1g2; 1 μM): 96.19%
- activity at 1 µM (CK1g2): 97.8%
- Activity% (CLK1; 1 μM): 80.72%
- activity at 1 µM (CLK1): 81.9%
- Activity% (CLK4; 1 μM): 70.07%
- activity at 1 µM (CLK4): 71%
- Activity% (DYRK1B; 1 μM): 97.55%
- activity at 1 µM (DYRK1B): 99.4%
- Activity% (EPHA4; 1 μM): 92.78%
- activity at 1 µM (EPHA4): 92.8%
- Activity% (ERK2/MAPK1; 1 μM): 92.60%
- activity at 1 µM (ERK2/MAPK1): 96.9%
- Activity% (ERN2/IRE2; 1 μM): 92.56%
- activity at 1 µM (ERN2/IRE2): 93.1%
- Activity% (FGFR4; 1 μM): 89.46%
- activity at 1 µM (FGFR4): 89.9%
- Activity% (GLK/MAP4K3; 1 μM): 102.14%
- activity at 1 µM (GLK/MAP4K3): 104%
- Activity% (ITK; 1 μM): 88.47%
- activity at 1 µM (ITK): 88.6%
- Activity% (MARK4; 1 μM): 101.55%
- activity at 1 µM (MARK4): 103%
- Activity% (MEK1; 1 μM): 97.25%
- activity at 1 µM (MEK1): 99%
- Activity% (MEKK3; 1 μM): 111.45%
- activity at 1 µM (MEKK3): 115%
- Activity% (MLK2/MAP3K10; 1 μM): 55.63%
- activity at 1 µM (MLK2/MAP3K10): 57%
- Activity% (MST3/STK24; 1 μM): 100.31%
- activity at 1 µM (MST3/STK24): 102%
- Activity% (MYO3A; 1 μM): 91.22%
- activity at 1 µM (MYO3A): 92.2%
- Activity% (PAK3; 1 μM): 99.63%
- activity at 1 µM (PAK3): 103%
- Activity% (PASK; 1 μM): 91.47%
- activity at 1 µM (PASK): 93%
- Activity% (PBK/TOPK; 1 μM): 97.84%
- activity at 1 µM (PBK/TOPK): 98.4%
- Activity% (PRKX; 1 μM): 103.46%
- activity at 1 µM (PRKX): 104%
- Activity% (ROCK1; 1 μM): 99.31%
- activity at 1 µM (ROCK1): 101%
- Activity% (SBK1; 1 μM): 102.75%
- activity at 1 µM (SBK1): 104%
- Activity% (TAK1; 1 μM): 96.74%
- activity at 1 µM (TAK1): 97.5%
- Activity% (TGFBR2; 1 μM): 114.72%
- activity at 1 µM (TGFBR2): 115%
- Activity% (TTBK2; 1 μM): 98.08%
- activity at 1 µM (TTBK2): 98.4%
- Activity% (ULK3; 1 μM): 92.16%
- activity at 1 µM (ULK3): 92.9%
